Assay results taken from US10301272B2, “Carboxamide or sulfonamide substituted thiazoles and related derivatives as modulators for the orphan nuclear receptor ROR[γ]” (Phenex Pharmaceuticals AG, priority 2012, dated 2019).
Where two headings read alike, the source gives them in different places.

Target: RORγ (Homo sapiens, UniProt P51449)
Assay: RORγ Gal4 Reporter Gene Assay
Format: cell-based
Details: for IC50: 293T cells
Procedure: Determination of a ligand mediated Gal4 promoter driven transactivation to quantify ligand binding to RORγ was performed as follows: DNA encoding three different RORγ protein fragments was cloned into vector pCMV-BD (Stratagene). Expression was under control of a CMV promoter and as fusion to the DNA-binding domain of the yeast protein GAL4. Other vectors used were pFR-Luc (Stratagene) as regulated reporter plasmid. pFR-Luc contains a synthetic promoter with five tandem repeats of the yeast GAL4 binding sites that control expression of the Photinus pyralis (American firefly) luciferase gene. In order to improve experimental accuracy the plasmid pRL-CMV was cotransfected. pRL-CMV contains the constitutive CMV promoter, controlling the expression of the Renilla reniformis luciferase.
The medium is supplemented with 10% fetal bovine serum, 0.1 mM nonessential amino acids, 1 mM sodium pyruvate, 1% Glutamax and 100 units Penicilin/[…] per mL at 37° C. in 5% CO2.
For the assay, […] were plated per well in 96 well plates in 100 μL per well, incubated over night at 37° C. in 5% CO2. […] About 4 h after addition of the transfection solution, fresh Minimal Essential Medium (MEM, same composition as used for plating cells, but without serum) was added. Then compound stocks, prediluted in MEM (same composition as used for plating cells) were added (final vehicle concentration not exceeding 0.1%).
All experiments were done at least in triplicates.

[1] = firefly (FF) luciferase, read-out: pIC50 (FF) (converted)
[2] = renilla normalised (RENnorm) luciferase, read-out: pIC50 (REN) (converted)

Chain of RORγ (P51449 whole entry, looked up, the tested form may be a part): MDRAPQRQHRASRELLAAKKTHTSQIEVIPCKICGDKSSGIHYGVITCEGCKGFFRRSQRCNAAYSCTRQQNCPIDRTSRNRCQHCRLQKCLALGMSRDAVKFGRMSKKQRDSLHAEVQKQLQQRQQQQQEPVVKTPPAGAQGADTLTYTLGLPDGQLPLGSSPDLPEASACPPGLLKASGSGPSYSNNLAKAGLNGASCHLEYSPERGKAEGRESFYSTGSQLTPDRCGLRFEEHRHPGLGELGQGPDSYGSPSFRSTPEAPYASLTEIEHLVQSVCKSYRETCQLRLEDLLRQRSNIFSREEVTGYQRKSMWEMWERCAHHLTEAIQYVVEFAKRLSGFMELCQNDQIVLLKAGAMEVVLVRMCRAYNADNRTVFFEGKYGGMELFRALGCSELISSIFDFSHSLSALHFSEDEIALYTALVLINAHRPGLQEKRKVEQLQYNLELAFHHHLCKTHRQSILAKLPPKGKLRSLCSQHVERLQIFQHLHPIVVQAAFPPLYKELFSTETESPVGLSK

IC50 [1]	IC50 [2]	SMILES	pIC50 (FF)	pIC50 (REN)
1.26 nM	1.26 nM	C[C@H](NS(=O)(=O)c1ccc(-c2sc(C(=O)NC3CCS(=O)(=O)CC3)nc2CC2CCCC2)c(Cl)c1Cl)C(F)(F)F [8/12]		
		CC(C)(C)NS(=O)(=O)c1cc(Cl)c(-c2sc(C(=O)N[C@H]3C[C@H](C(=O)O)C3)nc2CC2CCCCC2)cc1Cl [19/11]	nt/7.6/7.7	nt/7.6/7.7
		CC(C)(CCO)NC(=O)c1cc(-c2sc(C(=O)NC3CCS(=O)(=O)CC3)nc2CC2CCCCC2)cc(C2(C)CC2)c1 [10/3]	nt/7.9/8.0	nt/7.9/8.0
1 nM	1 nM	C[C@H](NS(=O)(=O)c1ccc(-c2sc(C(=O)NC3CCS(=O)(=O)CC3)nc2CC2CCCC2)c2ccccc12)C(F)(F)F [8/11]		
31.6 nM	25.1 nM	CC(C)(C)NS(=O)(=O)c1ccc(-c2sc(C(=O)N[C@H]3C[C@H](C(=O)O)C3)nc2Cc2ccccc2)c2ccccc12 [300/18]		
		C[C@H](NS(=O)(=O)c1ccc(-c2sc(C(=O)NCC(C)(C)O)nc2CC2CCC(F)(F)CC2)c2ccccc12)C(F)(F)F [21/23]	nt/8.7/8.6	nt/8.7/8.6
		CC(C)(C)NS(=O)(=O)c1ccc(-c2sc(C(=O)NC3CCS(=O)(=O)CC3)nc2Cc2cccnc2)c2ccccc12 [300/13]	nt/6.4/6.6	nt/6.4/6.6
		CC(C)(C)NS(=O)(=O)c1ccc(-c2sc(C(=O)N[C@H]3C[C@H](C(=O)O)C3)cc2CC2CCCCC2)c2ccccc12 [Example 307, trans-3-(5-(4-(N-(tert-Butyl)sulfamoyl)naphthalen-1-yl)-4-(cyclohexylmethyl)thiophene-2-carboxamido)cyclobutanecarboxylic acid]	nt/8.2/8.3	nt/8.2/8.3
		CCC1CCN(C(=O)c2nc(C(=O)NCC(C)(C)O)sc2-c2ccc(S(=O)(=O)NC(C)(C)C)c3ccccc23)CC1 [304/10]	nt/7.5/7.5	nt/7.5/7.5
		CC1CCN(C(=O)c2nc(C(=O)NCC(C)(C)O)sc2-c2ccc(S(=O)(=O)N(CC(F)(F)F)C(C)(C)C)c3ccccc23)CC1 [304/23]	nt/7.5/7.7	nt/7.5/7.7
		C[C@H](NC(=O)c1cc(-c2sc(C(=O)NCC(C)(C)c3nnn[nH]3)nc2CC2CCCCC2)cc(C2(C)CC2)c1)C(F)(F)F [6/62]	nt/7.5/7.5	nt/7.5/7.5
		CCC(C)(C)NS(=O)(=O)c1ccc(-c2sc(C(=O)NCC(C)(C)O)nc2C(=O)N2CCC(C)CC2)c(Cl)c1C [Example 301/1]	nt/8.5/8.5	nt/8.5/8.5
20 nM	20 nM	CC(C)(C)NS(=O)(=O)c1ccc(-c2sc(C(=O)N[C@H]3C[C@H](C(=O)O)C3)nc2CC2CCC2)c(Cl)c1Cl [21/15]		
		CC1CCCN(C(=O)c2nc(C(=O)NCC(C)(C)O)sc2-c2ccc(S(=O)(=O)NC(C)(C)C)c3ccccc23)C1C (stereo not shown) [304/9]	nt/7.3/7.4	nt/7.3/7.4
		CC(C)(C)NS(=O)(=O)c1ccc(-c2oc(C(=O)NCCC(C)(C)C(=O)O)nc2CC2CCCCC2)c2ccccc12 [100/21]	nt/7.2/7.1	nt/7.2/7.1
		CCC(C)(C)NS(=O)(=O)c1ccc(-c2sc(C(=O)NCC(C)(C)O)nc2CC2CCC2)c(OC(F)(F)F)c1 [21/25]	nt/7.7/7.8	nt/7.7/7.8
		CC(C)(C)NS(=O)(=O)c1ccc(-c2sc(C(=O)NC3CCS(=O)(=O)CC3)cc2CC2CCCCC2)c2ccccc12 [Example 307/1]	nt/8.4/8.5	nt/8.4/8.5
		CC(C)(C)NS(=O)(=O)c1ccc(-c2sc(C(=O)NCC(C)(C)c3nn[nH]n3)nc2CC2CCCCC2)c2ccccc12 [6/59]	nt/7.6/7.8	nt/7.6/7.8

IC50 [1]	IC50 [2]	SMILES	pIC50 (FF)	pIC50 (REN)
		CC1CCN(C(=O)c2nc(C(=O)NC3CC34CCOCC4)sc2-c2ccc(S(=O)(=O)NC(C)(C)C)c3ccccc23)CC1 (stereo not shown) [304/18]	nt/7.5/7.7	nt/7.5/7.7
		CC1CCN(C(=O)c2nc(C(=O)NCC(C)(C)O)sc2-c2ccc(S(=O)(=O)N[C@@H](C)C(F)(F)F)c3ccccc23)CC1 [304/12]	nt/7.7/7.7	nt/7.7/7.7
		CCC(C)(C)NS(=O)(=O)c1ccc(-c2sc(C(=O)NC3CCS(=O)(=O)CC3)nc2C(=O)N2CCC(C)CC2)c2ccccc12 [304/14]	nt/7.5/7.6	nt/7.5/7.6
		CCC(C)(C)NS(=O)(=O)c1ccc(-c2sc(C(=O)N3CC4(C3)CS(=O)(=O)C4)nc2C(=O)N2CCC(C)CC2)c(Cl)c1C [301/2]	nt/7.7/7.8	nt/7.7/7.8
		CC1CCN(C(=O)c2nc(C(=O)NCC(C)(C)O)sc2-c2ccc(S(=O)(=O)NC3(C)CC3)c3ccccc23)CC1 [304/27]	nt/7.6/7.5	nt/7.6/7.5
		CC1CCN(C(=O)c2nc(C(=O)NCC(C)(C)O)sc2-c2ccc(S(=O)(=O)NC3(C)CCC3)c3ccccc23)CC1 [304/26]	nt/8.0/7.9	nt/8.0/7.9
		CC1CCN(C(=O)c2nc(C(=O)NCC(C)(C)O)sc2-c2ccc(S(=O)(=O)NC3CCOC3)c3ccccc23)CC1 (stereo not shown) [304/24]	nt/6.6/6.7	nt/6.6/6.7
		CC(C)(C)NS(=O)(=O)c1ccc(-c2sc(C(=O)N3CCC(S(C)(=O)=O)CC3)nc2CC2CCCCC2)c2ccccc12 [6/56]	nt/8.1/8.2	nt/8.1/8.2
		CC(C)(C)NS(=O)(=O)c1ccc(-c2sc(C(=O)NC3CCS(=O)(=O)CC3)nc2CC2CCC2)c(Cl)c1Cl [21/14]	nt/8.3/8.4	nt/8.3/8.4
		CCCc1nc(C(=O)NC2CCS(=O)(=O)CC2)sc1-c1ccc(S(=O)(=O)NC(C)(C)C)c2ccccc12 [300/7]	nt/7.7/7.9	nt/7.7/7.9
		C[C@H](NS(=O)(=O)c1ccc(-c2sc(C(=O)NCC(C)(C)O)nc2CC2CCC2)c(Cl)c1)C(F)(F)F [21/19]	nt/7.9/7.9	nt/7.9/7.9
7.94 nM	6.31 nM	CC(C)(C)NS(=O)(=O)c1ccc(-c2sc(C(=O)N[C@H]3C[C@H](C(=O)O)C3)nc2CC2CCC2)c2ccccc12 [21/17]		
		CCC(C)(C)NS(=O)(=O)c1ccc(-c2sc(C(=O)N[C@H]3C[C@H](C(=O)O)C3)nc2C(=O)N2CCC(C)CC2)c(Cl)c1C [Example 302, trans-3-(5-(2-Chloro-3-methyl-4-(N-(tert-pentyl)sulfamoyl)phenyl)-4-(4-methylpiperidine-1-carbonyl)thiazole-2-carboxamido)cyclobutanecarboxylic acid]	nt/7.3/7.5	nt/7.3/7.5
		CC(C)(C)NS(=O)(=O)c1ccc(-c2sc(C(=O)NC3CCS(=O)(=O)CC3)nc2-c2cccc(C#N)c2)c2ccccc12 [300/15]	nt/7.3/7.4	nt/7.3/7.4
		CC(C)(O)CNC(=O)c1nc(CC2CCC(F)(F)CC2)c(-c2ccc(S(=O)(=O)NC(C)(C)C)c3ccccc23)s1 [21/11]	nt/8.0/8.2	nt/8.0/8.2
		Cc1c(-c2sc(C(=O)NC3CCS(=O)(=O)CC3)nc2CC2CCCCC2)cc(Cl)c(S(=O)(=O)NC(C)(C)C)c1Cl [6/63]	nt/9.2/8.9	nt/9.2/8.9
		CC(C)(C)NS(=O)(=O)c1ccc(-c2sc(C(=O)NC3CCS(=O)(=O)CC3)nc2CC2CCC2)c2ccccc12 [21/16]	nt/8.4/8.4	nt/8.4/8.4
